# Results as given in PMC12087653 (Autophagy, 2025).
# Columns and labels:
# LGG-1 = LGG-1 (Caenorhabditis elegans, UniProt Q09490); conditions: cited from earlier work
# HeLa cells = conditions: Rab7 colocalization; cited from earlier work
# LC3/GABARAP proteins = conditions: cited from earlier work
# [1] = tested on: STX17-SNAP29-VAMP8 complex; conditions: in vitro fusion assay; cited from earlier work
# GABARAP = conditions: full-length HsEPG5; cited from earlier work
# His-LGG-1 = His-LGG-1 (C. elegans, UniProt Q09490 1-116); assay: ITC
# Chain of His-LGG-1 (Q09490 1-116): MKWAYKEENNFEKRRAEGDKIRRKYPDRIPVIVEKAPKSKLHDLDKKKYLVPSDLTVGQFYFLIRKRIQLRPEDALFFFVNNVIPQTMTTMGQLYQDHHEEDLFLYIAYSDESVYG
# Chain of LGG-1 (Q09490 whole entry): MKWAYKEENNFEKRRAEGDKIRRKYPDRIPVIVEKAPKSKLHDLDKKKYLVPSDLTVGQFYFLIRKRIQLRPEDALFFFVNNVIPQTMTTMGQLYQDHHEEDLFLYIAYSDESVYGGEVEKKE
molecule,measurement,setting,value
"CeEPG5: C. elegans EPG-5, recombinant",binding to LGG-1,LGG-1,binds the C. elegans Atg8 protein LGG-1 via its tandem LIR
HsEPG5: human EPG5 (ectopic P-granules 5 autophagy tethering factor; ~290 kDa),formation of puncta / localization in cells,HeLa cells,could form small puncta that colocalize with lysosomal surface-residing Rab7 in HeLa cells
same,dependence of peri-nuclear localization on LC3/GABARAP proteins,LC3/GABARAP proteins,HsEPG5 localization to the peri-nuclear region is independent of LC3/GABARAP proteins
same,effect on STX17-SNAP29-VAMP8 complex formation,[1],modestly enhances the formation of the STX17-SNAP29-VAMP8 complex
same,Atg8 subfamily preference of HsEPG5,GABARAP,preferentially binds members of the GABARAP subfamily
STWEILADDDD [CeEPG5 LIR1 peptide (505STWEILADDDD515)],Kd,His-LGG-1,1.46 µM
GEANEFSFVTINE [CeEPG5 LIR2 peptide (516GEANEFSFVTINE528)],Kd,His-LGG-1,10.4 µM
